Measurements taken from US20240116946A1 (Gilead Sciences, Inc., priority 2022, published 2024).

Columns and labels:
[1] = molecular target: recombinant SARS-CoV-2 Main protease (Mpro) (Severe acute respiratory syndrome coronavirus 2 (2019-nCoV) (SARS-CoV-2), UniProt P0DTD1); assay: Cov Mpro Biochemical IC50 Assay; settings: recombinant SARS-CoV-2 Mpro 7.5 nM, fluorogenic peptide substrate 40 μM; read-out: MPro IC50
SARS-CoV-2-NLuc = assay: microbe, parasite or virus in culture; assay type: cell-based, SARS Coronavirus 2; settings: read-out: MPro EC50

`Cn1ncc2cncc(-n3c(=O)c4sc(-c5ccc(F)cc5Cl)cc4n(CCC#N)c3=O)c21` (single isomer, unassigned) [Example 955, 3-(6-(2-chloro-4-fluorophenyl)-3-(1-methyl-1H-pyrazolo[4,3-c]pyridin-7-yl)-2,4-dioxo-3,4-dihydrothieno[3,2-d]pyrimidin-1(2H)-yl)propanenitrile] showed an IC50 [1] of 6.81 nM and an EC50 (SARS-CoV-2-NLuc) of 9.67 nM.
With `Cn1ncc2cncc(-n3c(=O)c4sc(-c5ccc(F)cc5Cl)cc4n(CCC#N)c3=O)c21` (single isomer, unassigned) [Example 956, 3-(6-(2-chloro-4-fluorophenyl)-3-(1-methyl-1H-pyrazolo[4,3-c]pyridin-7-yl)-2,4-dioxo-3,4-dihydrothieno[3,2-d]pyrimidin-1(2H)-yl)propanenitrile] the IC50 [1] was over 1000 nM and the EC50 (SARS-CoV-2-NLuc) was 699 nM.
With `COc1cc(-c2cc3[nH]c(=O)n(-c4cncc5ccn(C)c45)c(=O)c3s2)c(Cl)cc1F` (single isomer, unassigned) [Example 957, 6-(2-chloro-4-fluoro-5-methoxyphenyl)-3-(1-methyl-1H-pyrrolo[3,2-c]pyridin-7-yl)thieno[3,2-d]pyrimidine-2,4(1H,3H)-dione] the IC50 [1] was 2.22 nM and the EC50 (SARS-CoV-2-NLuc) was 2.65 nM.
In the case of `COc1cc(-c2cc3[nH]c(=O)n(-c4cncc5ccn(C)c45)c(=O)c3s2)c(Cl)cc1F` (single isomer, unassigned) [Example 958, 6-(2-chloro-4-fluoro-5-methoxyphenyl)-3-(1-methyl-1H-pyrrolo[3,2-c]pyridin-7-yl)thieno[3,2-d]pyrimidine-2,4(1H,3H)-dione], the IC50 [1] is reported as 11.2 nM and the EC50 (SARS-CoV-2-NLuc) is reported as 13.3 nM.
`COc1cc(-c2cc3c(s2)c(=O)n(-c2cncc4[nH]nc(C)c24)c(=O)n3CCC#N)c(Cl)cc1F` (single isomer, unassigned) [Example 959, 3-(6-(2-chloro-4-fluoro-5-methoxyphenyl)-3-(3-methyl-1H-pyrazolo[3,4-c]pyridin-4-yl)-2,4-dioxo-3,4-dihydrothieno[3,2-d]pyrimidin-1(2H)-yl)propanenitrile] showed an IC50 [1] of 5.11 nM and an EC50 (SARS-CoV-2-NLuc) of 5.86 nM.
In the case of `COc1cc(-c2cc3c(s2)c(=O)n(-c2cncc4[nH]nc(C)c24)c(=O)n3CCC#N)c(Cl)cc1F` (single isomer, unassigned) [Example 960, 3-(6-(2-chloro-4-fluoro-5-methoxyphenyl)-3-(3-methyl-1H-pyrazolo[3,4-c]pyridin-4-yl)-2,4-dioxo-3,4-dihydrothieno[3,2-d]pyrimidin-1(2H)-yl)propanenitrile], the IC50 [1] is reported as 79.6 nM and the EC50 (SARS-CoV-2-NLuc) is reported as 163 nM.
Work on `Cn1ncc2cncc(-n3c(=O)c4sc(-c5ccccc5C#N)cc4n(CCC#N)c3=O)c21` (single isomer, unassigned) [Example 961, 2-(1-(2-cyanoethyl)-3-(1-methyl-1H-pyrazolo[4,3-c]pyridin-7-yl)-2,4-dioxo-1,2,3,4-tetrahydrothieno[3,2-d]pyrimidin-6-yl)benzonitrile] yielded an IC50 [1] of 6.18 nM and an EC50 (SARS-CoV-2-NLuc) of 19.6 nM.
`Cn1ncc2cncc(-n3c(=O)c4sc(-c5ccccc5C#N)cc4n(CCC#N)c3=O)c21` (single isomer, unassigned) [Example 962, 2-(1-(2-cyanoethyl)-3-(1-methyl-1H-pyrazolo[4,3-c]pyridin-7-yl)-2,4-dioxo-1,2,3,4-tetrahydrothieno[3,2-d]pyrimidin-6-yl)benzonitrile] showed an IC50 [1] of over 1000 nM and an EC50 (SARS-CoV-2-NLuc) of over 1000 nM.
Compound `N#CCCn1c(=O)n(-c2cncc3ccccc23)c(=O)c2sc(-c3ccccc3C#N)cc21` (single isomer, unassigned) [Example 963, 2-(1-(2-cyanoethyl)-3-(isoquinolin-4-yl)-2,4-dioxo-1,2,3,4-tetrahydrothieno[3,2-d]pyrimidin-6-yl)benzonitrile] has an IC50 [1] of 7.92 nM and an EC50 (SARS-CoV-2-NLuc) of 14.6 nM.
In the case of `N#CCCn1c(=O)n(-c2cncc3ccccc23)c(=O)c2sc(-c3ccccc3C#N)cc21` (single isomer, unassigned) [Example 964, 2-(1-(2-cyanoethyl)-3-(isoquinolin-4-yl)-2,4-dioxo-1,2,3,4-tetrahydrothieno[3,2-d]pyrimidin-6-yl)benzonitrile], the IC50 [1] is reported as 62.5 nM and the EC50 (SARS-CoV-2-NLuc) is reported as 87 nM.
For `Cc1nc2cncc(-n3c(=O)c4sc(-c5ccc(F)cc5Cl)cc4n(CCC#N)c3=O)c2n1C` (single isomer, unassigned) [Example 965, 3-(6-(2-chloro-4-fluorophenyl)-3-(1,2-dimethyl-1H-imidazo[4,5-c]pyridin-7-yl)-2,4-dioxo-3,4-dihydrothieno[3,2-d]pyrimidin-1(2H)-yl)propanenitrile], the IC50 [1] was 20.1 nM and the EC50 (SARS-CoV-2-NLuc) was 78.3 nM.
`Cc1nc2cncc(-n3c(=O)c4sc(-c5ccc(F)cc5Cl)cc4n(CCC#N)c3=O)c2n1C` (single isomer, unassigned) [Example 966, 3-(6-(2-chloro-4-fluorophenyl)-3-(1,2-dimethyl-1H-imidazo[4,5-c]pyridin-7-yl)-2,4-dioxo-3,4-dihydrothieno[3,2-d]pyrimidin-1(2H)-yl)propanenitrile] gave an IC50 [1] of 309 nM and an EC50 (SARS-CoV-2-NLuc) of over 1000 nM.
`COc1cc(-c2cc3c(s2)c(=O)n(-c2cncc4ccccc24)c(=O)n3CCC#N)c(C#N)cc1F` (single isomer, unassigned) [Example 967, 2-(1-(2-cyanoethyl)-3-(isoquinolin-4-yl)-2,4-dioxo-1,2,3,4-tetrahydrothieno[3,2-d]pyrimidin-6-yl)-5-fluoro-4-methoxybenzonitrile] gave an IC50 [1] of 1.82 nM and an EC50 (SARS-CoV-2-NLuc) of 1.83 nM.
Work on `COc1cc(-c2cc3c(s2)c(=O)n(-c2cncc4ccccc24)c(=O)n3CCC#N)c(C#N)cc1F` (single isomer, unassigned) [Example 968, 2-(1-(2-cyanoethyl)-3-(isoquinolin-4-yl)-2,4-dioxo-1,2,3,4-tetrahydrothieno[3,2-d]pyrimidin-6-yl)-5-fluoro-4-methoxybenzonitrile] yielded an IC50 [1] of 89.1 nM and an EC50 (SARS-CoV-2-NLuc) of 96 nM.
With `COc1cc(-c2cc3c(s2)c(=O)n(-c2cncc4nc(C)n(C)c24)c(=O)n3CCC#N)c(Cl)cc1F` (single isomer, unassigned) [Example 969, 3-(6-(2-chloro-4-fluoro-5-methoxyphenyl)-3-(1,2-dimethyl-1H-imidazo[4,5-c]pyridin-7-yl)-2,4-dioxo-3,4-dihydrothieno[3,2-d]pyrimidin-1(2H)-yl)propanenitrile] the IC50 [1] was over 1000 nM and the EC50 (SARS-CoV-2-NLuc) was over 1000 nM.
Work on `COc1cc(-c2cc3c(s2)c(=O)n(-c2cncc4nc(C)n(C)c24)c(=O)n3CCC#N)c(Cl)cc1F` (single isomer, unassigned) [Example 970, 3-(6-(2-chloro-4-fluoro-5-methoxyphenyl)-3-(1,2-dimethyl-1H-imidazo[4,5-c]pyridin-7-yl)-2,4-dioxo-3,4-dihydrothieno[3,2-d]pyrimidin-1(2H)-yl)propanenitrile] yielded an IC50 [1] of 3.96 nM and an EC50 (SARS-CoV-2-NLuc) of 18.9 nM.
`Cc1c2c(-n3c(=O)c4sc(-c5ccc(F)cc5Cl)cc4n(CCC#N)c3=O)cncc2nn1C` (single isomer, unassigned) [Example 971, 3-(6-(2-chloro-4-fluorophenyl)-3-(2,3-dimethyl-2H-pyrazolo[3,4-c]pyridin-4-yl)-2,4-dioxo-3,4-dihydrothieno[3,2-d]pyrimidin-1(2H)-yl)propanenitrile] showed an IC50 [1] of 13 nM and an EC50 (SARS-CoV-2-NLuc) of 55.8 nM.
